Read-outs that look alike come from different tables or passages of the source.
What was measured:
mouse P2X7R = molecular target: T1, mouse P2X7R (Mus musculus, UniProt Q9Z1M0); experiment: fluorometric Ca2+ assay (ATP-induced [Ca2+]i response) in HEKmP2X7 cells; assay type: cell-based; details: fluo-4, 1 mM ATP, read-out: Potency IC50 ± SEM, Mouse P2X7R
T1 construct: expressed in transfected cells
T1 sequence (Q9Z1M0 1-595): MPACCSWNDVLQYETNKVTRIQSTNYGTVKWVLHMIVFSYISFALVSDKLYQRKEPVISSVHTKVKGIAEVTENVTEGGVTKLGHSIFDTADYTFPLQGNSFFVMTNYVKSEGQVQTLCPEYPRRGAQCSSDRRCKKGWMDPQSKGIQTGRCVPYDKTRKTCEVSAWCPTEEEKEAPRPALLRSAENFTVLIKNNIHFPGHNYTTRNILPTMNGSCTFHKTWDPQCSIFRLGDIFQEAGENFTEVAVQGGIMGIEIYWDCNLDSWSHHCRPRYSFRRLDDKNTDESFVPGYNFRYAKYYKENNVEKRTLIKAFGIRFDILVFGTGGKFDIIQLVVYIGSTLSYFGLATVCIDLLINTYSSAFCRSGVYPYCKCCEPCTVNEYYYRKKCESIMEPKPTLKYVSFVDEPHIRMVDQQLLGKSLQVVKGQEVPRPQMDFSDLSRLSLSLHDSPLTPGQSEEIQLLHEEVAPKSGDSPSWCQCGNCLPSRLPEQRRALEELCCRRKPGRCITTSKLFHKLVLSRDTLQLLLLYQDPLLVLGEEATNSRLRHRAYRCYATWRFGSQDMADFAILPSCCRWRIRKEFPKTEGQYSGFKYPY
Experimental: Cells were grown in a humidified incubator at 37°C in an atmosphere supplemented with 5% CO2. […] HEK293mP2X7 were cultured in DMEM under similar conditions as described above, but containing 100 μg/ml zeocin (Invitrogen). […] Expression of the transgene was induced by supplementing the medium with 1 μg/ml tetracycline (Sigma-Aldrich, Taufkirchen, Germany) 24 h prior to the experiments. All fluorometric Ca^2+ assays in cell suspensions were performed in 384-microwell plates (Corning, No. 3655, Lowell, MA, USA) with a fluorescence-imaging microplate reader (POLARstar Omega, BMG Labtech, Offenburg, Germany) (for details, see [61, 68]). […] Microwell plates were repetitively scanned every 16 s in the fast scanning mode of the device. […] Data were normalized to the baseline values before ATP application (F/F0). […] ATP-solution was freshly prepared in Mg^2+-free HBS solution and adjusted to pH 7.4. Aliquots of stock solutions were stored at -20°C and freshly diluted with the appropriate HBS solution. […] Results are expressed as mean ± SEM. […] In the PTZ-T, the number of animals in the group with clonic seizures and the latency time were analysed using Fisher's exact probability test and the Mann-Whitney rank sum test, respectively. For multiple comparisons of the latency time a one-way ANOVA with the Holm-Sidak post hoc test was used. The influence of AFC on the plasma and brain concentrations of the antiepileptic drugs was statistical compared using the same procedure. In the PTZ-kindling model, the mean seizure stage within a group was calculated in relation to the number of PTZ-injections. Statistical comparison between vehicle- and compound-treated groups in this model was performed with two-way repeated measures ANOVA, followed by the Holm-Sidak post hoc test. […] In fully kindled rats, the calculated mean seizure stage within a group after vehicle- and compound-treatment were compared using a paired t-test. P < 0.05 was the accepted minimum level of significance.

[1] = Plasma and brain concentration in rats (after PTZ-kindling); assay type: in vivo; details: for concentration at 45 min / Kp at 0.75 h: ip; for Kp at 0.75 h: 45 min
Experimental: One day after kindling procedure, selected rats (groups with n ≥ 5) were again pre-treated with the compounds of interest and sacrificed at the assumed peak times of brain concentration by CO2 inhalation. Blood was collected intracardially by heart centesis via glass pipettes supplemented with heparin-Na (ratiopharm, Ulm, Germany; 10μl of 5.000 I.U./ml) and separated by centrifuging (1500xg for 10 min) at 6–8°C. The plasma was stored at -20°C in plastic tubes. After blood sample collection, rats were decapitated and brains were quickly dissected. After removing the adherent blood by tissue paper and cutting off the cerebellum, the samples were fresh frozen using liquid nitrogen. Brain tissue was stored at -80°C and delivered to the different laboratories on dry ice. For mice (groups with n = 6), a similar procedure was used for the preparation of plasma and brain samples. In experiments in which AFC was co-administered with carbamazepine or ethosuximide, drug concentrations in plasma and brain were estimated to detect potential pharmacokinetic interactions.
Samples from experiments with AFC were analysed at the Lead Discovery Center (Dortmund, Germany). Briefly, AFC, carbamazepine and ethosuximide were extracted from plasma and homogenized brain by protein precipitation using acetonitrile. Resulting filtrates were analysed by liquid chromatography tandem-mass spectrometry (LC-MS/MS) using a Prominence UFLC system (Shimadzu, Duisburg, Germany) coupled to a QTrap 5500 instrument (ABSciex, Darmstadt, Germany). The compounds were separated on a Zorbax Eclipse Plus C18 column (Agilent Technologies, Santa Clara, CA, USA) with an acetonitrile/water gradient containing 0.1% formic acid as solvent. Chromatographic conditions and mass spectrometer parameters were optimized for each analyte. Plasma and brain concentrations of the compounds were calculated by means of a standard curve.
Plasma and brain samples from experiments with JNJ-47965567 were quantified at the Neuroscience Therapeutic Area, Janssen Research & Development (San Diego, CA, USA) using an API 4000 MS/MS system (Applied Biosystems, Concord, ON, Canada) interfaced with an Agilent 1100 Series HPLC (Agilent Technologies). To measure the percentage of P2X7R brain occupancy of JNJ-47965567, ex vivo receptor binding autography was performed as recently described. Briefly, 20 μm-thick hippocampal slices were prepared and P2X7R radioligand binding was determined at room temperature with 10 nM [^3H] JNJ-54232334 (Janssen) in 50 mM Tris-HCl incubation buffer containing 0.1% bovine serum albumin. The non-specific binding was measured using adjacent sections incubated in the additional presence of 100 μM A-740003 (Tocris Bioscience, Bristol UK). Sections were incubated for 1 min, washed in ice-cold incubation buffer (4 times, 5 min each), followed by two dips in deionized water and rapidly dry under a stream of cold air before acquisition. Quantitative analysis was performed using the Tracer ß-Imager with M3 Vision software (Biospace Lab, Paris, France). Ex vivo receptor labelling was expressed as the percentage of receptor labelling in corresponding brain areas of vehicle-treated control animals.

SMILES	IC50 (mouse P2X7R)	mean brain concentration ([1]; 50 mg/kg i.p., 45 min before, n = 7)	concentration at 45 min ([1]; rat, brain, 50 mg/kg i.p., 45 min after injection, read-out: rat brain concentration)	Kp at 0.75 h ([1]; rat, brain, 50 mg/kg, 50 mg/kg i.p., read-out: brain to plasma ratio)	concentration at 45 min ([1]; rat, plasma, 50 mg/kg i.p., 45 min before, n = 7, read-out: mean blood plasma concentration)	mean brain concentration ([1]; 15 mg/kg s.c., 30 min before, n = 5, listed as JNJ, 15 mg/kg)	concentration at 30 min ([1]; rat, brain, sc, 15 mg/kg s.c., 30 min before, n = 5, read-out: mean brain concentration)	Kp at 0.5 h ([1]; rat, brain, sc, 15 mg/kg, 15 mg/kg s.c., 30 min, read-out: brain to plasma ratio)	concentration at 30 min ([1]; rat, plasma, sc, 15 mg/kg s.c., 30 min before, n = 5, read-out: mean blood plasma concentration)	mean brain concentration ([1]; 30 mg/kg i.p., 45 min before, n = 5)	concentration at 45 min ([1]; rat, brain, 30 mg/kg i.p., after 45 min, read-out: rat brain concentration)	Kp at 0.75 h ([1]; rat, brain, 30 mg/kg, 30 mg/kg i.p., read-out: brain to plasma ratio)	concentration at 45 min ([1]; rat, plasma, 30 mg/kg i.p., 45 min before, n = 5, read-out: mean blood plasma concentration)
CCOc1ccc(Nc2ccc(/C(=C3C=C/C(=[N+](/CC)Cc4cccc(S(=O)(=O)[O-])c4)C=C/3C)c3ccc(N(CC)Cc4cccc(S(=O)(=O)O)c4)cc3C)cc2)cc1 [Brilliant Blue G]	530 ± 150 nM	20 ± 2 nM	20 nM	0.01	1600 ± 300 nM								
O=C(NCC1(N2CCN(c3ccccc3)CC2)CCOCC1)c1cccnc1Sc1ccccc1 [JNJ-47965567, N-[[4-(4-phenyl-piperazin-1-yl)tetrahydro-2H-pyran-4-yl]-methyl]-2-(phenyl-thio) nicotinamide]	10 ± 1 nM					5000 ± 1100 nM	5000 nM	1.2	4000 ± 1000 nM				
Cc1c(S(=O)(=O)[O-])oc2c1C(=O)C(=O)c1c-2ccc2c1CCCC2(C)C.[Na+] [Tanshinone TIIAS, tanshinone IIS sulfonic sodium]	≥ 6000 nM									500 ± 100 nM	500 nM	0.02	31100 ± 5900 nM
